Where a name gives a salt, the structure may show the parent alone.
target: T1, HDAC6 (Homo sapiens, UniProt Q9UBN7); experiment: HDAC assay (fluorogenic substrate), HDAC6; type: biochemical
T1 sequence (Q9UBN7 1-1215): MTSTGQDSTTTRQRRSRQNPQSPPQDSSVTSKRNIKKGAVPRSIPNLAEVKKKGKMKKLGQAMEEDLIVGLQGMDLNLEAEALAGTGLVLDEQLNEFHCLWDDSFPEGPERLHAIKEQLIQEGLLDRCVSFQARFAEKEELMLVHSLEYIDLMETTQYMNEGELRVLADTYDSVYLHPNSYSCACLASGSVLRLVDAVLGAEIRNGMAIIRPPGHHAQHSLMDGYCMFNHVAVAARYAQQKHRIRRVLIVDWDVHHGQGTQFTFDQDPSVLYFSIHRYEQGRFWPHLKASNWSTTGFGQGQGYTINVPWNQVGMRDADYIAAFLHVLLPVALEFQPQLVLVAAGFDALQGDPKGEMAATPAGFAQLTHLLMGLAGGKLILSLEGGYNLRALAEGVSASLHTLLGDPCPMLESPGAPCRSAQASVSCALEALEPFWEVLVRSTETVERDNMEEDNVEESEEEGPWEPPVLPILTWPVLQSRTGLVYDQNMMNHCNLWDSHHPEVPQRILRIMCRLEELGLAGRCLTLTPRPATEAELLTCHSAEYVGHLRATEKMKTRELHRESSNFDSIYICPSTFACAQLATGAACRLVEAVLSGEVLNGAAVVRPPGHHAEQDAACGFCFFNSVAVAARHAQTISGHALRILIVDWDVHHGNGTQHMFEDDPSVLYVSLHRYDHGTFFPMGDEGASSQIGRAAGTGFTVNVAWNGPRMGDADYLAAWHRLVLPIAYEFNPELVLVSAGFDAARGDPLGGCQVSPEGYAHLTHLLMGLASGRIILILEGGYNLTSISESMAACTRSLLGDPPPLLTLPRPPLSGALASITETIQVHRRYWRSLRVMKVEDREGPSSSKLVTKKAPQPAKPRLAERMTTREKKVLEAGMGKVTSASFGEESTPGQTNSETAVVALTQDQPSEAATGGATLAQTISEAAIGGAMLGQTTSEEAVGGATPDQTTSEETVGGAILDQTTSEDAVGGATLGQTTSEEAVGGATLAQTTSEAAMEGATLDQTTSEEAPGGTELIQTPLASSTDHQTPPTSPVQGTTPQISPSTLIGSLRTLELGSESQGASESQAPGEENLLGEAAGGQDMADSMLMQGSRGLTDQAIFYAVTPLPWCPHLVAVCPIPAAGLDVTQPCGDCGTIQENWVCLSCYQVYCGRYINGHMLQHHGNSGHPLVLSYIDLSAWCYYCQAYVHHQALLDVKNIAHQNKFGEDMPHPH
Protocol: Base Reaction buffer: 50 mM Tris-HCl, pH8.0, 137 mM NaCl, 2.7 mM KCl, and 1 mM MgCl2. Add fresh: 1 mg/ml BSA, 1% DMSO
Fluorogenic HDAC General Substrate: 50 μM, Arg-His-Lys-Lys(Ac)
• 1. Deliver 2× enzyme in wells of reaction plate except No Enzyme control wells. Add buffer in No En wells. • 2. Deliver compounds in 100% DMSO into the enzyme mixture by Acoustic technology (Echo550; nanoliter range). Spin down and pre-incubation. • 3. Deliver 2× Substrate Mixture (Fluorogenic HDAC Substrate and co-factor if applicable) in all reaction wells to initiate the reaction. Spin and shake. • 4. Incubate for 30 min for Class 2A, 1 hr for HDAC1, 2, 3, and 6, and 2 hr for the rest of HDACs and SIRTs at 30° C. with seal. Development Step: • 5. Add Developer with Trichostatin A (or Nicotinamide for SIRTs) to stop the reaction and to generate fluorescent color. • 6. Kinetic measurement for 1.5 hr with Envision with 15 min interval. (Ex/Em=360/460 nm) • 7. Take endpoint reading for analysis after the development reaches plateau.

inhibition at 10 µM [%] | Compound
> 90 | FC(F)c1nnc(-c2cnc(Nc3cc(Br)c4nc[nH]c4c3)nc2)o1 [Example 2, 4-bromo-N-(5-(5-(difluoromethyl)-1,3,4-oxadiazol-2-yl)pyrimidin-2-yl)-1H-benzo[d]imidazol-6-amine]
> 80 | FC(F)c1nnc(-c2cnc(Nc3cc(-c4cccnc4)c4nc[nH]c4c3)nc2)o1 [Example 3, N-(5-(5-(difluoromethyl)-1,3,4-oxadiazol-2-yl)pyrimidin-2-yl)-4-(pyridin-3-yl)-1H-benzo[d]imidazol-6-amine hydrochloride]
> 70 | Cn1cnc2c(-c3ccccc3)cc(Nc3ncc(-c4nnc(C(F)F)o4)cn3)cc21 [Example 4, N-(5-(5-(difluoromethyl)-1,3,4-oxadiazol-2-yl)pyrimidin-2-yl)-1-methyl-4-phenyl-1H-benzo[d]imidazol-6-amine]
> 90 | Cc1nc2c(-c3ccccc3)cc(Nc3ncc(-c4nnc(C(F)F)o4)cn3)cc2[nH]1 [Example 5, N-(5-(5-(difluoromethyl)-1,3,4-oxadiazol-2-yl)pyrimidin-2-yl)-2-methyl-4-phenyl-1H-benzo[d]imidazol-6-amine]
> 80 | CN(C)c1nc2c(-c3ccccc3)cc(Nc3ncc(-c4nnc(C(F)F)o4)cn3)cc2[nH]1 [Example 6, N6-(5-(5-(difluoromethyl)-1,3,4-oxadiazol-2-yl)pyrimidin-2-yl)-N2,N2-dimethyl-4-phenyl-1H-benzo[d]imidazole-2,6-diamine]
> 40 | CN(c1cc(-c2ccccc2)c2nc[nH]c2c1)c1ncc(-c2nnc(C(F)F)o2)cn1 [Example 7, N-(5-(5-(difluoromethyl)-1,3,4-oxadiazol-2-yl)pyrimidin-2-yl)-N-methyl-4-phenyl-1H-benzo[d]imidazol-6-amine]
> 80 | CN(C)C(=O)c1cc(Nc2ncc(-c3nnc(C(F)F)o3)cn2)cc2[nH]cnc12 [Example 8, 6-((5-(5-(difluoromethyl)-1,3,4-oxadiazol-2-yl)pyrimidin-2-yl)amino)-N,N-dimethyl-1H-benzo[d]imidazole-4-carboxamide]
> 90 | Fc1ccc(-c2cc(Nc3ncc(-c4nnc(C(F)F)o4)cn3)cc3[nH]cnc23)c(F)c1 [Example 9, N-(5-(5-(difluoromethyl)-1,3,4-oxadiazol-2-yl)pyrimidin-2-yl)-4-(2,4-difluorophenyl)-1H-benzo[d]imidazol-6-amine]
> 90 | FC(F)c1nnc(-c2cnc(Nc3cc(-c4ccccn4)c4nc[nH]c4c3)nc2)o1 [Example 10, N-(5-(5-(difluoromethyl)-1,3,4-oxadiazol-2-yl)pyrimidin-2-yl)-4-(pyridin-2-yl)-1H-benzo[d]imidazol-6-amine]
> 90 | O=S(=O)(NCCO)c1cc(Nc2ncc(-c3nnc(C(F)F)o3)cn2)cc2[nH]cnc12 [Example 11, 6-((5-(5-(difluoromethyl)-1,3,4-oxadiazol-2-yl)pyrimidin-2-yl)amino)-N-(2-hydroxyethyl)-1H-benzo[d]imidazole-4-sulfonamide]
> 90 | C=CCn1cnc2c(-c3ccccc3)cc(Nc3ncc(-c4nnc(C(F)F)o4)cn3)cc21 [Example 12, 1-allyl-N-(5-(5-(difluoromethyl)-1,3,4-oxadiazol-2-yl)pyrimidin-2-yl)-4-phenyl-1H-benzo[d]imidazol-6-amine]
> 90 | OCC(O)Cn1cnc2c(-c3ccccc3)cc(Nc3ncc(-c4nnc(C(F)F)o4)cn3)cc21 (stereo not drawn) [Example 13, 3-(6-((5-(5-(difluoromethyl)-1,3,4-oxadiazol-2-yl)pyrimidin-2-yl)amino)-4-phenyl-1H-benzo[d]imidazol-1-yl)propane-1,2-diol]
> 90 | OCCn1cnc2c(-c3ccccc3)cc(Nc3ncc(-c4nnc(C(F)F)o4)cn3)cc21 [Example 14, 2-(6-((5-(5-(difluoromethyl)-1,3,4-oxadiazol-2-yl)pyrimidin-2-yl)amino)-4-phenyl-1H-benzo[d]imidazol-1-yl)ethan-1-ol]
> 90 | CN(C)CCn1cnc2c(-c3ccccc3)cc(Nc3ncc(-c4nnc(C(F)F)o4)cn3)cc21 [Example 15, N-(5-(5-(difluoromethyl)-1,3,4-oxadiazol-2-yl)pyrimidin-2-yl)-1-(2-(dimethylamino)ethyl)-4-phenyl-1H-benzo[d]imidazol-6-amine]
> 90 | OC1CCN(CCn2cnc3c(-c4ccccc4)cc(Nc4ncc(-c5nnc(C(F)F)o5)cn4)cc32)C1 (stereo not drawn) [Example 16, 1-(2-(6-((5-(5-(difluoromethyl)-1,3,4-oxadiazol-2-yl)pyrimidin-2-yl)amino)-4-phenyl-1H-benzo[d]imidazol-1-yl)ethyl)pyrrolidin-3-ol]
> 90 | FC(F)c1nnc(-c2cnc(Nc3cc(-c4ccc(N5CCOCC5)cc4)c4nc[nH]c4c3)nc2)o1 [Example 17, N-(5-(5-(difluoromethyl)-1,3,4-oxadiazol-2-yl)pyrimidin-2-yl)-4-(4-morpholinophenyl)-1H-benzo[d]imidazol-6-amine]
> 90 | FC(F)c1nnc(-c2cnc(Nc3cc(-c4ccc(CN5CCOCC5)cc4)c4nc[nH]c4c3)nc2)o1 [Example 18, N-(5-(5-(difluoromethyl)-1,3,4-oxadiazol-2-yl)pyrimidin-2-yl)-4-(4-(morpholinomethyl)phenyl)-1H-benzo[d]imidazol-6-amine]
> 90 | FC(F)c1nnc(-c2cnc(Nc3ccc4nc[nH]c4c3)nc2)o1 [Example 19, N-(5-(5-(difluoromethyl)-1,3,4-oxadiazol-2-yl)pyrimidin-2-yl)-1H-benzo[d]imidazol-6-amine]
> 90 | FC(F)c1nnc(-c2cnc(NCc3cc(-c4ccccc4)c4nc[nH]c4c3)nc2)o1 [Example 20, 5-(5-(difluoromethyl)-1,3,4-oxadiazol-2-yl)-N-((4-phenyl-1H-benzo[d]imidazol-6-yl)methyl)pyrimidin-2-amine]
> 90 | OCCn1cnc2c(-c3ccccn3)cc(Nc3ncc(-c4nnc(C(F)F)o4)cn3)cc21 [Example 21, 2-(6-((5-(5-(difluoromethyl)-1,3,4-oxadiazol-2-yl)pyrimidin-2-yl)amino)-4-(pyridin-2-yl)-1H-benzo[d]imidazol-1-yl)ethan-1-ol]
> 90 | Fc1cnc(-c2cc(Nc3ncc(-c4nnc(C(F)F)o4)cn3)cc3[nH]cnc23)c(F)c1 [Example 22, N-(5-(5-(difluoromethyl)-1,3,4-oxadiazol-2-yl)pyrimidin-2-yl)-4-(3,5-difluoropyridin-2-yl)-1H-benzo[d]imidazol-6-amine]
> 90 | FC(F)c1nnc(-c2cnc(Nc3cc(C(F)(F)F)c4nc[nH]c4c3)nc2)o1 [Example 23, N-(5-(5-(difluoromethyl)-1,3,4-oxadiazol-2-yl)pyrimidin-2-yl)-4-(trifluoromethyl)-1H-benzo[d]imidazol-6-amine]
> 90 | OCCn1cnc2cc(Nc3ncc(-c4nnc(C(F)F)o4)cn3)cc(-c3ccccc3)c21 [Example 24, 2-(5-((5-(5-(difluoromethyl)-1,3,4-oxadiazol-2-yl)pyrimidin-2-yl)amino)-7-phenyl-1H-benzo[d]imidazol-1-yl)ethan-1-ol]
> 90 | CN(C)C(=O)Cn1cnc2c(-c3ccccc3)cc(Nc3ncc(-c4nnc(C(F)F)o4)cn3)cc21 [Example 25, 2-(6-((5-(5-(difluoromethyl)-1,3,4-oxadiazol-2-yl)pyrimidin-2-yl)amino)-4-phenyl-1H-benzo[d]imidazol-1-yl)-N,N-dimethylacetamide]
